Results published in US12226424B2, “Target protein degradation compounds, their anti-tumor use, their intermediates and use of intermediates” (ShanghaiTech University, priority 2018, dated 2025).

How the values were obtained:
ALK protein = ALK protein (Homo sapiens, UniProt Q9UM73); experiment: Western-blot half degradation concentration (DC50) of ALK protein in H3122 cells; type: cell-based; details: 24 h drug treatment, read-out: DC50 (nM)/ H3122 cell line
Protocol: (§1) ALK-positive SR cells (human large cell immunoblastic lymphoma) were purchased from the American Type Culture Collection (ATCC); H3122 cells (human non-small cell lung cancer) were from the Shanghai University of Science and Technology Lin Haifan's research group.
(§2) The cells used in this present disclosure were cultured in a 37° C. incubator containing 5% CO2.
DC50 (drug concentration corresponding to protein degradation to 50%) calculation: according to the gray value of the corresponding Western blotting band after drug treatment, fitting the relationship curve between drug concentration and gray value to calculate the drug concentration range corresponding to half of the gray value.

SR cells = experiment: Half inhibitory concentration (IC50) on ALK-positive SR cell proliferation (CCK-8); type: cell-based; details: Homo sapiens; SR cells, 72 h drug treatment, CCK-8; read-out: IC50 (nM)/ SR cell line
Protocol: as §1, §2
SR cells were seeded in 100 μL RPMI1640 complete medium at a density of 10,000 cells/well. 100 μL of the inoculated cells were treated with 0.5 μL diluted PROTAD compound of the present disclosure to be tested at 10 successively decreasing concentrations (starting at the highest concentration of 10 μM; 5-fold serial dilutions) After the cells were treated with the drug for 72 h, cell viability was determined according to the CCK-8 reagent operating instructions. The negative control was DMSO, and the positive control was a commercial inhibitor. After CCK-8 treatment for 2 h, the value of O.D.450 was measured using a microplate reader.

Sequence of ALK protein (Q9UM73 with tags, fused parts or gaps): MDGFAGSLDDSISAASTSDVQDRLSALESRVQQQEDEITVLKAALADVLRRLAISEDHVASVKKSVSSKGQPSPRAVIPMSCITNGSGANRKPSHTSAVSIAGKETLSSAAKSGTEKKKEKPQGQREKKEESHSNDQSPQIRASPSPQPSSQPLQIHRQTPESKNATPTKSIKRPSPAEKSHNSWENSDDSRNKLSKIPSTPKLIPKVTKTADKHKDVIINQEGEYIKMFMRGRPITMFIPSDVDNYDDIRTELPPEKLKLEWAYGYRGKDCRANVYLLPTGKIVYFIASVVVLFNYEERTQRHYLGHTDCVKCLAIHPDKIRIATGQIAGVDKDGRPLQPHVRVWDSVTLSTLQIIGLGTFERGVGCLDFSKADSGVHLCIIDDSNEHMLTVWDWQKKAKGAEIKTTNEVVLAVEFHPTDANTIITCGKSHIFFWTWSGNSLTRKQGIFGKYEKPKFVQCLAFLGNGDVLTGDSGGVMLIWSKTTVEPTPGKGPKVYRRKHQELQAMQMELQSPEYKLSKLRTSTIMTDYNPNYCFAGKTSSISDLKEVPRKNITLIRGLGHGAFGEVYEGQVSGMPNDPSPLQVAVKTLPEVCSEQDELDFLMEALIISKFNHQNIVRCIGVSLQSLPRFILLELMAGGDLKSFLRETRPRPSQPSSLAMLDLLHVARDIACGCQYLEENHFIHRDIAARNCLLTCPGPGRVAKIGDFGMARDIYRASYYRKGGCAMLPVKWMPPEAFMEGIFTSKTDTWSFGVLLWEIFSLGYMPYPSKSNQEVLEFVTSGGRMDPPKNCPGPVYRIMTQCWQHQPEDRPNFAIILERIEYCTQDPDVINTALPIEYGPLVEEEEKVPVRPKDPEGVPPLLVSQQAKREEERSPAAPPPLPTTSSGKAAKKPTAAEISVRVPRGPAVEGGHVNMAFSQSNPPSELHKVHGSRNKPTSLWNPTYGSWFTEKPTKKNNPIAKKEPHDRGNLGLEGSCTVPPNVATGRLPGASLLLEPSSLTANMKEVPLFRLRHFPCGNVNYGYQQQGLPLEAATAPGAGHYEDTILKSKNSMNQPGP

| DC50 (ALK protein) [nM] | SMILES | IC50 (SR cells) [nM] |
| --- | --- | --- |
| 204 | CCc1cc2c(cc1N1CCN(C(=O)CCCCCSc3cccc4c3C(=O)N(C3CCC(=O)NC3=O)C4=O)CC1)C(C)(C)c1[nH]c3cc(C#N)ccc3c1C2=O (stereo not shown) [SIAIS164071, 8-(4-(6-((2-(2,6-dioxopiperidin-3-yl)-1,3-dioxoisoindolin-4-yl)thio)hexanoyl)piperazin-1-yl)-9-ethyl-6,6-dimethyl-11-oxo-6,11-dihydro-5H-benzo[b]carbazole-3-carbonitrile] |  |
| 63 | CCc1cc2c(cc1N1CCN(C(=O)CCCCSc3cccc4c3C(=O)N(C3CCC(=O)NC3=O)C4=O)CC1)C(C)(C)c1[nH]c3cc(C#N)ccc3c1C2=O (stereo not shown) [SIAIS164072, 8-(4-(5-((2-(2,6-dioxopiperidin-3-yl)-1,3-dioxoisoindolin-4-yl)thio)pentanoyl)piperazin-1-yl)-9-ethyl-6,6-dimethyl-11-oxo-6,11-dihydro-5H-benzo[b]carbazole-3-carbonitrile] |  |
| 100 to 500 | CCc1cc2c(cc1N1CCN(C(=O)CCCCCCSc3cccc4c3C(=O)N(C3CCC(=O)NC3=O)C4=O)CC1)C(C)(C)c1[nH]c3cc(C#N)ccc3c1C2=O (stereo not shown) [SIAIS164073, 8-(4-(7-((2-(2,6-dioxopiperidin-3-yl)-1,3-dioxoisoindolin-4-yl)thio)heptanoyl)piperazin-1-yl)-9-ethyl-6,6-dimethyl-11-oxo-6,11-dihydro-5H-benzo[b]carbazole-3-carbonitrile] |  |
| 500 | COc1cc(N2CCC(NC(=O)CSc3cccc4c3C(=O)N(C3CCC(=O)NC3=O)C4=O)CC2)ccc1Nc1ncc(Cl)c(Nc2ccccc2P(C)(C)=O)n1 (stereo not shown) [SIAIS164137, N-(1-(4-((5-chloro-4-((2-(dimethylphosphoryl)phenyl)amino)pyrimidin-2-yl)amino)-3-methoxyphenyl)piperidin-4-yl)-2-((2-(2,6-dioxopiperidin-3-yl)-1,3-dioxoisoindolin-4-yl)thio)acetamide] | 16.8 ± 5.7 |
| 100 | COc1cc(N2CCC(NC(=O)CCSc3cccc4c3C(=O)N(C3CCC(=O)NC3=O)C4=O)CC2)ccc1Nc1ncc(Cl)c(Nc2ccccc2P(C)(C)=O)n1 (stereo not shown) [SIAIS164138, N-(1-(4-((5-chloro-4-((2-(dimethylphosphoryl)phenyl)amino)pyrimidin-2-yl)amino)-3-methoxyphenyl)piperidin-4-yl)-3-((2-(2,6-dioxopiperidin-3-yl)-1,3-dioxoisoindolin-4-yl)thio)propanamide] | 24.1 ± 17.5 |
| 500 | COc1cc(N2CCC(NC(=O)CCCSc3cccc4c3C(=O)N(C3CCC(=O)NC3=O)C4=O)CC2)ccc1Nc1ncc(Cl)c(Nc2ccccc2P(C)(C)=O)n1 (stereo not shown) [SIAIS164139, N-(1-(4-((5-chloro-4-((2-(dimethylphosphoryl)phenyl)amino)pyrimidin-2-yl)amino)-3-methoxyphenyl)piperidin-4-yl)-4-((2-(2,6-dioxopiperidin-3-yl)-1,3-dioxoisoindolin-4-yl)thio)butanamide] | 11.6 ± 6 |
| 500 | COc1cc(N2CCC(NC(=O)CCCCSc3cccc4c3C(=O)N(C3CCC(=O)NC3=O)C4=O)CC2)ccc1Nc1ncc(Cl)c(Nc2ccccc2P(C)(C)=O)n1 (stereo not shown) [SIAIS164140, N-(1-(4-((5-chloro-4-((2-(dimethylphosphoryl)phenyl)amino)pyrimidin-2-yl)amino)-3-methoxyphenyl)piperidin-4-yl)-5-((2-(2,6-dioxopiperidin-3-yl)-1,3-dioxoisoindolin-4-yl)thio)pentanamide] | 8.7 ± 4.9 |
| 50 | COc1cc(N2CCC(NC(=O)CCCCCCSc3cccc4c3C(=O)N(C3CCC(=O)NC3=O)C4=O)CC2)ccc1Nc1ncc(Cl)c(Nc2ccccc2P(C)(C)=O)n1 (stereo not shown) [SIAIS164142, N-(1-(4-((5-chloro-4-((2-(dimethylphosphoryl)phenyl)amino)pyrimidin-2-yl)amino)-3-methoxyphenyl)piperidin-4-yl)-7-((2-(2,6-dioxopiperidin-3-yl)-1,3-dioxoisoindolin-4-yl)thio)heptanamide] | 6.4 ± 4 |
